Results as given in ChEMBL document CHEMBL5634083, “Targeting polyketide synthase 13 for the treatment of tuberculosis” (Eur J Med Chem, 2023).
Values after ≈ are worked out from the molar mass of the structure shown.

Key:
[1] = system: Mycobacterium tuberculosis; assay: Antitubercular activity against Mycobacterium tuberculosis H37Rv assessed as reduction in microbial growth measured after 3 weeks by resazurin microplate reader assay; assay type: functional; conditions: 504 h
[2] = system: Mycobacterium tuberculosis; assay: Antimycobacterial activity against Mycobacterium tuberculosis H37Rv ATCC 27294 assessed as reduction in bacterial growth after 21 days by serial dilution method; assay type: functional; conditions: H37Rv ATCC 27294, 504 h, time 21 day
[3] = system: Mycobacterium tuberculosis; assay: Antimycobacterial activity against Mycobacterium tuberculosis H37Rv assessed as reduction in bacterial growth incubated for 7 days by resazurin based assay; assay type: functional; conditions: 168 h, time 7 day
[4] = system: Mycobacterium tuberculosis; assay: Antimycobacterial activity against Mycobacterium tuberculosis H37Rv assessed as reduction in bacterial growth; assay type: functional
[5] = system: HepG2; assay: Cytotoxicity against human HepG2 cells assessed as reduction in cell growth; assay type: functional, cell-based
[6] = Cytotoxicity against African green monkey Vero cells assessed as reduction in cell viability; assay type: toxicity, cell-based; conditions: African green monkey (Chlorocebus sabaeus)
[7] = Microsomal stability in human liver microsomes assessed as half life; assay type: ADME, Microsome
[8] = system: Mycobacterium tuberculosis; assay: Antibacterial activity against Mycobacterium tuberculosis H37Rv assessed as inhibition of cell growth; assay type: functional
[9] = system: Mycobacterium tuberculosis; assay: Antimycobacterial activity against Mycobacterium tuberculosis H37Rv assessed as reduction in microbial growth after 7 days by alamar blue assay; assay type: functional; conditions: 168 h, time 7 day
[10] = Metabolic stability in mouse liver microsomes assessed as intrinsic clearance; assay type: ADME, Microsome
[11] = system: Mycobacterium tuberculosis; assay: Antimycobacterial activity against Mycobacterium tuberculosis H37Rv assessed as microbial growth inhibition measured after 3 days by alamar blue assay; assay type: functional; conditions: 72 h, time 3 day
[12] = system: Mycobacterium tuberculosis; assay: Antimycobacterial activity against Mycobacterium tuberculosis H37Rv assessed as reduction in bacterial growth measured after 16 to 24 hrs by microplate alamar blue assay; assay type: functional; conditions: time 16-24 hrs
[13] = target: Polyketide synthase Pks13 (Mycobacterium tuberculosis (strain ATCC 25618 / H37Rv), UniProt I6X8D2); assay: Inhibition of Mycobacterium tuberculosis recombinant Pks13 expressed in Escherichia coli BL21 (DE3) cells using 4-methylumbelliferyl heptanoate as substrate incubated for 3 hrs by […] based analysis
[14] = system: Mycobacterium tuberculosis; assay: Antimycobacterial activity against Mycobacterium tuberculosis H37Rv assessed as reduction in bacterial cell growth by resazurin reduction method; assay type: functional

Chain of Polyketide synthase Pks13 (I6X8D2 whole entry): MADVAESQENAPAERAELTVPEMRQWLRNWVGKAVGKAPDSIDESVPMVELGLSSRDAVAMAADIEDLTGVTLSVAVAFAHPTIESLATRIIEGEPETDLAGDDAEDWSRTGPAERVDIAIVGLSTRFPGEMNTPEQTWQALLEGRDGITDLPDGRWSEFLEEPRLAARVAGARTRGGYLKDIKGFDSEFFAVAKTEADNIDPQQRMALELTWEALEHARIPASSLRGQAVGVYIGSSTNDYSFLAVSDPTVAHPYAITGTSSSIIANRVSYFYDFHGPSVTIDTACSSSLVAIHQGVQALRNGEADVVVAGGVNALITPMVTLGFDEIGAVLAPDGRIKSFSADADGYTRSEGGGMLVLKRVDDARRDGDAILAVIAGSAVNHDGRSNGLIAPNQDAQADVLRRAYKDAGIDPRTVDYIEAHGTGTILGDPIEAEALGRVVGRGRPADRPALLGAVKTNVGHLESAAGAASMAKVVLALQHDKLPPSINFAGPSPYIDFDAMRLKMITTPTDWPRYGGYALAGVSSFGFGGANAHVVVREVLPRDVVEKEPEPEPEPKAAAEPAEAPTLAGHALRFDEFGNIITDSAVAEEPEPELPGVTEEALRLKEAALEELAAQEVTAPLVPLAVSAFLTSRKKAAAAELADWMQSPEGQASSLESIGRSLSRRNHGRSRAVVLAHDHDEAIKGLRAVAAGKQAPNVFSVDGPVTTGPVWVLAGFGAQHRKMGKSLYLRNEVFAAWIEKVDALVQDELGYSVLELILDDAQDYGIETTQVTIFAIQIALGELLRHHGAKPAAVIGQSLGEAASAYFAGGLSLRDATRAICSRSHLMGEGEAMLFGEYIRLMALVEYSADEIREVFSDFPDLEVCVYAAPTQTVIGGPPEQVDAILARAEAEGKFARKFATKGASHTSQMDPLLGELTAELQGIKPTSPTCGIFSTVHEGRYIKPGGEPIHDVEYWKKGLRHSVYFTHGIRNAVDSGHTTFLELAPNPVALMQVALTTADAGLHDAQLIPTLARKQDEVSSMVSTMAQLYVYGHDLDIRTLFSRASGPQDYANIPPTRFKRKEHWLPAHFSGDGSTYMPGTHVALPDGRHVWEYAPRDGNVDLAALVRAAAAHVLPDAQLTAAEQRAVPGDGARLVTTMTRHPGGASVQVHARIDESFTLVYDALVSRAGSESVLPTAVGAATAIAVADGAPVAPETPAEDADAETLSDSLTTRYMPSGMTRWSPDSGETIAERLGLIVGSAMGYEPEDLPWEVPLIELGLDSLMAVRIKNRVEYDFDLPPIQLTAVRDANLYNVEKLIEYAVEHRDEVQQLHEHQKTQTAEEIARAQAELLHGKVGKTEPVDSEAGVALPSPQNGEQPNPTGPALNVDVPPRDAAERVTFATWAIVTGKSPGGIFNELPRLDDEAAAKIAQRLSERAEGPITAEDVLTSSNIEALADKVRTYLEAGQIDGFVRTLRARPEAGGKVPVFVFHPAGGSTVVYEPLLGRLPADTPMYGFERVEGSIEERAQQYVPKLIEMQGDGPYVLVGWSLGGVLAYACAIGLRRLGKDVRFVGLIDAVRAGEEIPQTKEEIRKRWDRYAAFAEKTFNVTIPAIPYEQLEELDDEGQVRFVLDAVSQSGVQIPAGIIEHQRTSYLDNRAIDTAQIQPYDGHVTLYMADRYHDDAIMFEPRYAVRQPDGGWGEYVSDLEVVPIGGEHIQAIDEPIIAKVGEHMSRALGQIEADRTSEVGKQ

For `O=C(c1ccccc1)c1cc(Cl)ccc1OCc1nc(-c2ccc(C(F)(F)F)cc2)no1`, which MIC [1] is on record?
The MIC was 8 µg/mL.

For `COc1ccccc1OCCNCC(O)COc1cccc2[nH]c3ccccc3c12` (stereo not drawn) [CARVEDILOL], which MIC [2] is on record?
Its MIC is 32 µg/mL (≈ 78.7 µM).

What does the source list for `COC(=O)c1c(NC(=O)c2c(F)c(F)c(F)c(F)c2F)sc2c1CCCCC2`?
MIC [3]: 1 µM (≈ 0.419 µg/mL); MIC [4]: 0.5 µM (≈ 0.21 µg/mL); IC50 [5]: 7.3 µM; IC50 [6]: 17.5 µM

With `CCOC(=O)c1c(-c2ccccc2)oc2ccc(O)c(CN3CCC(C)CC3)c12` as the compound, how does the half-life [7] read?
Its half-life is 18.8 min.

With `CCCCCCCCCCC[C@@H](C[C@@H]1OC(=O)[C@H]1CCCCCC)OC(=O)[C@H](CC(C)C)NC=O` [ORLISTAT] as the compound, how does the MIC [8] read?
Its MIC is 15 µM (≈ 7.44 µg/mL).

For `CCOC(=O)c1c(NC(=O)c2c(F)c(F)c(F)c(F)c2F)sc2c1CCN(CC)C2`, which MIC [9] is on record?
The MIC was 0.23 µM.

What does the source list for `CCOC(=O)c1c(NC(=O)c2c(F)c(F)c(F)c(F)c2F)sc(C(N)=O)c1C`?
MIC [3]: 0.5 µM (≈ 0.211 µg/mL); MIC [4]: 0.5 µM (≈ 0.211 µg/mL)

For `CNC(=O)c1c(-c2ccc(O)cc2)oc2ccc(O)c(CN3CCCCC3)c12`, which CLH [10] is on record?
The CLH was < 0.5 mL/min/g.

With `C=CCCCCCCC[C@H]1C(=O)O[C@@H]1CCCCCNC(=O)c1ccc(N(C)C)cc1` as the compound, how does the MIC [11] read?
The MIC was 1.6 µM (≈ 0.686 µg/mL).

For `O=c1cc(-c2ccccc2O)oc2ccc(O)c(CN3CCC3)c12`, which MIC [12] is on record?
Its MIC is 0.45 µg/mL (≈ 1.39 µM).

What about the IC50 [13] of the same compound?
The IC50 was 0.0143 µM.

With `CCN(CC)CCCC(C)Nc1c2ccc(Cl)cc2nc2ccc(OC)cc12` (stereo not drawn) [QUINACRINE] as the compound, how does the MIC [2] read?
The MIC was 64 µg/mL (≈ 160 µM).

With `Cc1ccc(-c2cc(C(F)(F)F)nn2-c2ccc(S(N)(=O)=O)cc2)cc1` [CELECOXIB] as the compound, how does the MIC [2] read?
The MIC was 64 µg/mL (≈ 168 µM).

For `CNC(=O)c1c(-c2ccccc2)oc2ccc(O)c(CN3CCCCC3)c12`, which MIC [14] is on record?
Its MIC is 0.29 µM (≈ 0.106 µg/mL).
